A word on the Papp B→A: it is the apparent permeability from the basolateral to the apical side of a cell layer. The Papp A→B is the apparent permeability from the apical to the basolateral side of a cell layer. Usually IC50 stands for the concentration at which inhibition is half-maximal.

Results on 5 molecules are retold here after ChEMBL document CHEMBL5505980, “Pyrazolamide derivatives inhibit α-Synuclein aggregation, disaggregate preformed fibers, and reduce inclusion formation in neuron cells” (Eur J Med Chem, 2024).

Series [1] concerns H4. The series can be described thus: Cytotoxicity against human H4 cells assessed as cell viability at 1 to 1000 uM incubated for 24 hrs by CCK-8 assay. As to conditions: h4, 24 h, dose 1-1000 µM. It is filed as toxicity, cell-based. (In general: Formazan colour is commonly taken as a measure of viable cells.)
Series [2] can be described thus: Apparent permeability across basolateral side to apical in MDCKII-MDR1 cells at 10 uM by LC-MS/MS analysis. Format: ADME, cell-based, Canis lupus familiaris. Conditions: dog, MDCK-MDR1.
Series [3] in a line: Apparent permeability across apical to basolateral side in MDCKII-MDR1 cells at 10 uM by LC-MS/MS analysis. Format: ADME, cell-based, Canis lupus familiaris. As to conditions: dog, MDCK-MDR1.
A short description of series [4]: Cytotoxicity against human H4 cells assessed as cell viability at 30 uM incubated for 24 hrs by CCK-8 assay relative to control. Format: toxicity, cell-based. As to conditions: read-out: Activity.
Series [5] relates to H4. Nature of the series: Cytotoxicity against human H4 cells assessed as cell viability at 300 uM incubated for 24 hrs by CCK-8 assay relative to control. Format: toxicity, cell-based. Conditions: h4, 24 h.
For a further series, the target named is Alpha-synuclein (Homo sapiens, UniProt P37840). Nature of the series: Inhibition of alpha-synuclein (unknown origin) aggregation inhibition ratio by measuring relative fluorescence intensity measured after 3 days by ThT F1 based assay relative to control.

Structures are written as SMILES.

For the molecule `Cc1ccc(-c2cc(C(=O)Nc3cc(O)ccc3O)[nH]n2)cc1`, the Activity entry with H4 [1] is “Non-Toxic”. For the same molecule, the Papp B→A at 10 µM in series [2] is 6.65 ×10⁻⁶ cm/s. The Papp A→B at 10 µM in series [3] was 2.26 ×10⁻⁶ cm/s. The viability at 24 h, 30 µM in series [4] turned out to be 74%.
For `O=C(Nc1ccc(O)c(O)c1)c1cc(-c2ccc(C(F)(F)F)cc2)n[nH]1`, in that order: “Non-Toxic”, 1.86 ×10⁻⁶ cm/s, 4.2 ×10⁻⁶ cm/s and 95%.
`O=C(Nc1cc(O)ccc1O)c1cc(-c2ccc(Br)cc2)n[nH]1`: the Activity result in the series on H4 [1] and in the series on H4 [5] was “Non-Toxic” each time. Moreover, in series [2], the Papp B→A at 10 µM was found to be 12 ×10⁻⁶ cm/s. Further, the Papp A→B at 10 µM in series [3] is 29.6 ×10⁻⁶ cm/s. The viability at 24 h, 30 µM in series [4] was 95%.
Regarding `O=C(Nc1cc(O)ccc1O)c1cc(-c2ccc(C(F)(F)F)cc2)n[nH]1`, the Activity entry with H4 [1] is given as “Non-Toxic”. The Papp B→A at 10 µM in series [2] is 19.3 ×10⁻⁶ cm/s. In addition, the Papp A→B at 10 µM in series [3] was 49.7 ×10⁻⁶ cm/s. Moreover, the viability at 24 h, 30 µM in series [4] was 95%.
`O=C(O[C@@H]1Cc2c(O)cc(O)cc2O[C@@H]1c1cc(O)c(O)c(O)c1)c1cc(O)c(O)c(O)c1` [EPIGALOCATECHIN GALLATE]: in the series on H4 [1], the Activity entry is listed as “Non-Toxic”. Also, at Alpha-synuclein, the IC50 is 2580 nM.
